In brackets after ≈: the same amount, converted by molar mass. Starred links: 1 amine or outer side, 2 acyl side, 3 side chain; linkers in the order of their positions; H or OH if unused. Positions of bridges follow the written chain, without caps; N, C: chain ends. Non-standard residues stand in square brackets, D forms with d. Residues, ends and D or L forms follow the SMILES beside them. *: point of attachment. Decanoyl(3R-OH) = CCCCCCC[C@@H](O)CC(=O)*; azaDab = NCCN(N[*:1])C(=O)[*:2]; dDab = NCC[C@@H](N)C(=O)O; dDap = NC[C@@H](N)C(=O)O; Dab = NCC[C@H](N)C(=O)O

Here are results for two compounds from patent US11279733B2, “Peptide antibiotics” (priority 2017, dated 2022).

The subject of one series is A. baumannii ATCC 19606. The following applies: ATCC 19606. The method, boiled down:
(§1)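 Mid-log cultures grown in Mueller Hinton broth at 37° C were tested by 2-fold broth microdilution at 5×10^5 CFU/mL final. Compounds were dissolved in water and tested over a final range of 32 to 0.015 μg/mL.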

The subject of series [1] is P. aeruginosa GN_105, PmxR. To be noted: GN 105, PmxR. The essentials:
as §1

For series [2], the system named is K. pneumoniae ATCC 700603, MDR. To be noted: ATCC 700603. The essentials: as §1
A further series relates to P. aeruginosa ATCC 27853. To be noted: ATCC 27853. The method, boiled down: as §1
For the next series, the system named is A. baumannii GN_093 PmxR. The following applies: GN 093 PmxR. The method, boiled down:
as §1

In series [3] the test system is P. aeruginosa GN_043, PmxR. The essentials:
as §1

Series [4] relates to K. pneumoniae ATCC BAA-2146, NDM-1 pos. To be noted: ATCC BAA-2146. The essentials:
as §1

Series [5] has as its system K. pneumoniae GN_102 PmxR. To be noted: GN 102 PmxR. The method, boiled down: as §1
Series [6] deals with S. aureus ATCC 25923, MSSA. To be noted: ATCC 25923. The method, boiled down:
as §1

The test system of series [7] is K. pneumoniae GN_106, PmxR. To be noted: GN 106, PmxR. The essentials:
as §1

A further series relates to E. coli ATCC 25922. The following applies: ATCC 25922. The essentials: as §1
Another series has as its system K. pneumoniae ATCC 13883. To be noted: ATCC 13883. The method, boiled down:
as §1

A short description of series [8]: In vitro nephrotoxicity, LDH release from primary human kidney cells. It is filed as cell-based. To be noted: pH 7.4.
Series [9] is described as follows: In vitro nephrotoxicity, GGT release from primary human kidney cells. It is filed as cell-based. The following applies: pH 7.4. The method, boiled down:
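Primary proximal tubule cells from normal human renal cortex were collagenase-isolated and grown serum-free to 80–90% confluence. GGT release was measured on samples with 2.5 mM γ-glutamyl-p-nitroanilide plus glycylglycine in 50 mM Tris, pH 8.2. p-Nitroanilide formation was read at 410 nm.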

The next series has as its system Neisseria gonorrhoeae. As to the kind of experiment: MIC determination, Neisseria gonorrhoeae. Type of series: cell-based. The method, boiled down: as §1
Series [10] is described as follows: in vitro. To be noted: human. The method, boiled down:
(§2)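 Compound exposure lasted 24 h, following 24 h attachment of 4000 cells/well at 37° C under 5% CO2.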

Series [11] is described as follows: in vitro. To be noted: human. The method, boiled down:
as §2
This is another data set of the same source.

The next series deals with HepG2 cells. The experiment in a line: in vitro. To be noted: human, 24 h. The essentials: as §2
The next series deals with HEK293 cells. As to the kind of experiment: in vitro. To be noted: human, 24 h. The method, boiled down: as §2

With `CCCCCCC[C@@H](O)CC(=O)N[C@H](CN)C(=O)N[C@H]1CCNC(=O)[C@H](CC(C)C)NC(=O)[C@H](CCN)NC(=O)[C@H](CCN)NC(=O)[C@H](CC(C)C)NC(=O)[C@@H](Cc2ccccc2)NC(=O)[C@H](CCN)NC1=O` [compound 6442, 3(R)OH-nC9CO-D-Dap-cyc[L-Dab-L-Dab-D-Phe-L-Leu-L-Dab-L-Dab-L-Leu]] ({Decanoyl(3R-OH)}-[dDap][Dab][Dab][dF]L[Dab][Dab]L; lactam 2-C), the “MIC, A. baumannii ATCC 19606” value against A. baumannii ATCC 19606 came out at 4 µg/mL (≈ 3.88 µM). Moreover, the “MIC P. aeruginosa GN_105, PmxR” value in [1] was 2 µg/mL (≈ 1.94 µM). Further, the “MIC, K. pneumoniae ATCC 700603, MDR” value in [2] was 4 µg/mL (≈ 3.88 µM). Besides, the “MIC, P. aeruginosa ATCC 27853” value against P. aeruginosa ATCC 27853 is 2 µg/mL (≈ 1.94 µM). For the same compound, the “MIC A. baumannii GN_093 PmxR” value in the series with A. baumannii GN_093 PmxR was found to be 4 µg/mL (≈ 3.88 µM). The “MIC P. aeruginosa GN_043, PmxR” value in [3] (Table 6, polymyxin-resistant) worked out at 2 µg/mL (≈ 1.94 µM). Besides, the “MIC, K. pneumoniae ATCC BAA-2146, NDM-1 pos” value in [4] worked out at 8 µg/mL (≈ 7.76 µM). Moreover, in series [5], the “MIC K. pneumoniae GN_102 PmxR” value turned out to be 2 µg/mL (≈ 1.94 µM). For the same compound, the “MIC, S. aureus ATCC 25923, MSSA” value in series [6] is 16 µg/mL (≈ 15.5 µM). The “MIC K. pneumoniae GN_106, PmxR” value in series [7] came out at 4 µg/mL (≈ 3.88 µM). Further, the “MIC, E. coli ATCC 25922” value in the series on E. coli ATCC 25922 was 2 µg/mL (≈ 1.94 µM). Further, the “MIC, K. pneumoniae ATCC 13883” value with K. pneumoniae ATCC 13883 came to 4 µg/mL (≈ 3.88 µM). For the same compound, the CC50 in series [8] and in series [9] was greater than 128 µg/mL each time. Also, the “MIC N. gonorrhoeae F89” value against Neisseria gonorrhoeae (strain F89) amounted to 1.56 µg/mL (≈ 1.51 µM). In the series with Neisseria gonorrhoeae (strain FA19 ATCC BAA-1838), the “MIC N. gonorrhoeae FA19 ATCC BAA-1838” value was 1.56 µg/mL (≈ 1.51 µM). In addition, the “MIC N. gonorrhoeae FA1090 A25 ATCC 700825” value against Neisseria gonorrhoeae (strain FA1090 A25 ATCC 700825) turned out to be 1.3 µg/mL (≈ 1.26 µM). The “MIC N. gonorrhoeae H041” value with Neisseria gonorrhoeae (strain H041) came to 1.56 µg/mL (≈ 1.51 µM). Besides, the CC50 at 24 h in the series “in vitro [10]” was greater than 300 µM.
Regarding `CCCCCCC[C@@H](O)CC(=O)N[C@H](CCN)C(=O)N[C@H]1CCNC(=O)[C@H](CC(C)C)NC(=O)[C@H](CCN)NC(=O)N(CCN)NC(=O)[C@H](CC(C)C)NC(=O)[C@@H](Cc2ccccc2)NC(=O)[C@H](CCN)NC1=O` [compound 8641, 3(R)OH-nC9CO-D-Dab-cyc[L-Dab-L-DAB-D-Phe-L-Leu-azaDab-L-Dab-L-Leu]] ({Decanoyl(3R-OH)}-[dDab][Dab][Dab][dF]L[azaDab][Dab]L; lactam 2-C), the “MIC A. baumannii ATCC 19606” value against A. baumannii ATCC 19606 is 8 µg/mL (≈ 7.65 µM). The “MIC P. aeruginosa PA9704, PmxR” value in [1] turned out to be 2 µg/mL (≈ 1.91 µM). Also, the “MIC K. pneumoniae ATCC 700603, MDR” value in series [2] was found to be 4 µg/mL (≈ 3.83 µM). In addition, in the series with P. aeruginosa ATCC 27853, the “MIC P. aeruginosa ATCC 27853” value is 2 µg/mL (≈ 1.91 µM). In the series on A. baumannii GN_093 PmxR, the “MIC A. baumannii Cl Ptyela 10073 4512:2, PmxR” value was 32 µg/mL (≈ 30.6 µM). The “MIC, P. aeruginosa FADDI-PA070, PmxR” value in [3] (strain name as in Table 11) was 2 µg/mL (≈ 1.91 µM). In series [4], the “MIC K. pneumoniae ATCC BAA-2146, NDM-1 pos” value is 8 µg/mL (≈ 7.65 µM). In addition, the “MIC K. pneumoniae Cl Koprana 10065 0661:1 PmxR” value in [5] is 2 µg/mL (≈ 1.91 µM). The “MIC S. aureus ATCC 25923, MSSA” value in series [6] is 32 µg/mL (≈ 30.6 µM). In addition, the “MIC K. pneumoniae Cl 183-16357-20352, PmxR” value in series [7] is 4 µg/mL (≈ 3.83 µM). Further, the “MIC E. coli ATCC 25922” value with E. coli ATCC 25922 is 4 µg/mL (≈ 3.83 µM). The “MIC K. pneumoniae ATCC 13883” value in the series on K. pneumoniae ATCC 13883 came to 4 µg/mL (≈ 3.83 µM). The CC50 in series [8] was greater than 128 µg/mL; in the series on HepG2 cells, greater than 300 µM; in series [9], greater than 128 µg/mL; with HEK293 cells, greater than 300 µM. The CC50 at 24 h in the series “in vitro [11]” and in the series “in vitro [10]” was greater than 300 µM each time.
